Data set [1] is classed as in vivo, human. The note with it: after either treatment (MT 300 sc or DHE 45 im), LLOQ 50 pg/ml. As for the experimental part:
The study described above in Example 2 utilizes an incomplete crossover design. This protocol is amended to provide a direct comparison of the tolerance and pharmacokinetics of a 2 mg/ml (2.9 mM) formulation of MT 300 (Formulation A-2) and DHE 45®. The present experiment is a randomized, open-label, two period, […], crossover study comparing subcutaneous administration of 1.2 mg of MT 300 and intramuscular administration of 1 mg of DHE 45®. Plasma dihydroergotamine and the 8-hydroxydihydroergotamine metabolite are measured with an LC/MS/MS method, with a LLOQ of 50 pg/ml for both DHE and 8-OH DHE. Serial blood samples are collected for 72 hours after the dose. Seven of 8 subjects complete this study. One subject withdraws from the study due to difficulty in obtaining the blood samples. The adverse event profile is similar to that observed in the study of Example 2.

The conditions of data set [2]: DHE given subcutaneously at 1.5 mM; cited from earlier work.
Data set [3] in a line: Example 4: overall tolerance profile (adverse events) of subjects administered DHE. Particulars: DHE concentration increased from 1.5 mM to 2.9 mM or more, total quantity of DHE constant. Format: in vivo, human. The source says:
Adverse events occur in 20 of 33 subjects treated with MT 300 and 8 of 13 subjects treated with DHE 45®.

Data set [4] is described as follows: Solubility of DHE in aqueous formulations with caffeine.
The nature of data set [5]: Animal studies of DHE absorption with caffeine. The note with it: caffeine at 10:1 weight ratio relative to DHE. It counts as in vivo.

Results on 2 compounds are retold here after patent publication US7060694B2, “High potency dihydroergotamine compositions” (Pozen Inc., priority 1999, dated 2006).

Turning to 8-hydroxydihydroergotamine [8-OH DHE], the “plasma levels of 8-OH DHE metabolite” value in data set [1] is listed as “No significant levels”.

Take `CN1C[C@H](C(=O)N[C@]2(C)O[C@@]3(O)[C@@H]4CCCN4C(=O)[C@H](Cc4ccccc4)N3C2=O)C[C@@H]2c3cccc4[nH]cc(c34)C[C@H]21` [DHE, Dihydroergotamine]: in data set [2], the “nausea in treated patients” value was ~16%. Further, in data set [3], the “side effects, particularly nausea” value is reported as “reduced”. Moreover, the “solubility of DHE in aqueous formulations” value in data set [4] is “greatly increases the solubility”. For the same compound, the drug absorption characteristics entry in data set [5] is given as “improves drug absorption characteristics”.
